# Reference: US20060276393A1, “Novel compositions for preventing and treating neurodegenerative and blood coagulation disorders” (Sirtris Pharmaceuticals, Inc., priority 2005, published 2006)
# Where “and” joins values, the source holds several entries; their conditions need not be identical. Identical values can stand only once. Entries after “also recorded” stand apart in the source; their conditions may differ.
# How the values were obtained:
# [1] = target: T1, recombinant human SIRT1 (Homo sapiens, UniProt Q96EB6); test: SIRT1 fluorescent deacetylation assay (p53-382 acetylated peptide); type: biochemical; details: for SIRT1 stimulating activity (in words): 25 μM NAD+, 25 μM p53-382 acetylated peptide, compounds at 100 μM
# T1 sequence (Q96EB6 1-747): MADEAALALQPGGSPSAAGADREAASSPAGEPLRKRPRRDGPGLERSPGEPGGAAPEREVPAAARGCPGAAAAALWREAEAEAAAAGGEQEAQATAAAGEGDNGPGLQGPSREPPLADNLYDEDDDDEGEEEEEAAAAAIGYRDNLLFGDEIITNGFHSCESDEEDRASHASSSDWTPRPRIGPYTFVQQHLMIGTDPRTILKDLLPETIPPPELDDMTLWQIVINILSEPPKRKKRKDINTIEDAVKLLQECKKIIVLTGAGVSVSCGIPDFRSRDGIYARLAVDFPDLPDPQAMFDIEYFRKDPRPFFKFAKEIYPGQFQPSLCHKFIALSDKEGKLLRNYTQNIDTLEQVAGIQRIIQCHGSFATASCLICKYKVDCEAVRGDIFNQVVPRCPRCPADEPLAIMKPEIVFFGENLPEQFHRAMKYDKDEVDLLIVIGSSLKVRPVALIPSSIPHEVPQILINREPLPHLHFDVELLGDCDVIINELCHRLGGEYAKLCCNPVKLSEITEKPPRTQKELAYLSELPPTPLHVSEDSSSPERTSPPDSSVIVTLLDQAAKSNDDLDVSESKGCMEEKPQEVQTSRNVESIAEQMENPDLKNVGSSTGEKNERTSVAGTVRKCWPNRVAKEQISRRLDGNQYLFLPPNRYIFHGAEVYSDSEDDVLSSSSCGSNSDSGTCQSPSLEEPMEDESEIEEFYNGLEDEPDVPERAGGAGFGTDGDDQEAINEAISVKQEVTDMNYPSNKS
# Source text: Lines represent non-linear least-squares fits to the Michaelis-Menten equation. […] Lines represent non-linear least-squares fits to the Michaelis-Menten equation. […] Error bars are standard errors of the mean.
# To identify compounds that modulate SIRT1 activity, a number of small molecule libraries were screened using a fluorescent deacetylation assay in 96-well plates^26. The substrate used in the assay was a fluorogenic peptide based on the sequence encompassing the p53-K382 acetylation site, a known target of SIRT1 in vivo^20,21,27. […] The small molecule libraries included analogues of nicotinamide, ε-acetyl lysine, NAD^+, nucleotides, nucleotide analogues and purinergic ligands.
# His6-tagged recombinant SIRT1 and GST-tagged recombinant Sir2 were prepared as previously described^26. From 0.1 to 1 μg of SIRT1 and 1.5 μg of Sir2 were used per deacetylation assay (in 50 μl total reaction) as previously described^26.
# Themed compound libraries (BIOMOL) were used for primary and secondary screening. Most polyphenol compounds were dissolved at 10 mM in dimethylsulfoxide (DMSO) on the day of the assay. For water soluble compounds and negative controls, 1% v/v DMSO was added to the assay. […] Unless otherwise indicated all initial rate measurements were means of three or more replicates, obtained with single incubation times, at which point 5% or less of the substrate initially present had been deacetylated. Calculation of net fluorescence increases included subtraction of a blank value, which in the case of Sir2 was obtained by omitting the enzyme from the reaction and in the case of SIRT1 by adding an inhibitor (200 μM suramin or 1 mM nicotinamide) to the reaction prior to the acetylated substrate. […] All error bars represent the standard error of the mean.
# [2] = tested on: S. cerevisiae; test: Yeast replicative lifespan; type: cell-based; details: for % change in yeast replicative lifespan relative to untreated organisms (10 μM): 2% (w/v) glucose YPD, untreated 100%; for Average lifespan: 10 μM compound, 2% glucose medium, wild type untreated 22.9
# Protocol: Average lifespan for wild type, 22.9 generations, quercetin, 23.4; piceatannol. […]
# All yeast strains were grown at 30° C. in complete yeast extract/bactopeptone, 2.0% (w/v) glucose (YPD) medium except where stated otherwise. Calorie restriction was induced in 0.5% glucose. Synthetic complete (SC) medium consisted of 1.67% yeast nitrogen base, 2% glucose, 40 mg/litre each of auxotrophic markers. SIR2 was integrated in extra copy and disrupted as described^5. Other strains are described elsewhere^26. For cellular deacetylation assays, HeLa S3 cells were used. U20S osteosarcoma and human embryonic kidney (HEK 293) cells were cultured adherently in Dulbecco's Modified Eagle's Medium (DMEM) containing 10% fetal calf serum (FCS) with 1.0% glutamine and 1.0% penecillin/streptomycin. HEK 293 overexpressing dominant negative SIRT1 H363Y was a gift of R. Frye (U. Pittsburgh).
# Lifespan measurements were performed using PSY316AT MATα as previously described^35. All compounds for lifespan analyses were dissolved in 95% ethanol and plates were dried and used within 24 hours. Prior to lifespan analysis, cells were pre-incubated on their respective media for at least 15 hours. Following transfer to a new plate, cells were equilibrated on the medium for a minimum of 4 hours prior to micro-manipulating them. At least 30 cells were examined per experiment and each experiment was performed at least twice. Statistical significance of lifespan differences was determined using the Wilcoxon rank sum test. Differences are stated to be significant when the confidence is higher than 95%.
# [3] = tested on: HDAC; details: in vitro or in vivo, literature; cited from earlier work
# [4] = tested on: Human 293; test: Survival of 293 cells; details: 50 micromolar
# Source text: The number of live cells each time point was counted using a Coulter counter.
# [5] = target: T2, SIRT1 deacetylase (BIOMOL) (Homo sapiens, UniProt Q96EB6); test: High-throughput SIRT1 screening protocol (ICCB library); type: biochemical; details: positive controls; 200 μM NAD+, 5 μM Fluor de Lys-SIRT1; resveratrol 50 μM
# T2 construct: purchased BIOMOL
# T2 sequence (Q96EB6 1-747): T1 sequence (Q96EB6 1-747)
# Protocol: The reaction mixture contains (final): 0.5 units/reaction SIRT1 deacetylase (BIOMOL); 200 μM NAD^+; 5 μM Fluor de Lys-SIRT1 substrate (BIOMOL); buffer (25 mM Tris/Cl, pH 8.0, 137 mM NaCl, 2.7 mM KCl, 1 mM MgCl2, and 1 mg/ml BSA). In addition, a reaction mixture containing no enzyme was made so that each well receiving compound has a corresponding “no enzyme control” well. Reactions were performed in black 384 well plates (NUNC) in a final volume of 25 μl/well.
# The reactions were started by combining enzyme and substrate in a reaction mixture immediately prior to aliquoting in plates (or substrate only for “no enzyme control” plates). Mixture were aliquoted to plates using Biotek μfill (Biotek Instruments). Control mixtures were manually added to designated wells. A library compound was added at a desired concentration by pin transfer to both “with enzyme” and “no enzyme” plates. Compounds were added in at least triplicate (with enzyme reaction in duplicate and no enzyme controls) at a final concentration of roughly 50 μM. The plates were incubated at 37° C for 30-60 minutes. Then 25 μl of 1× Developer II (BIOMOL) plus 2 mM nicotinamide were added to all wells to stop the reactions. The reactions were left for at least 30 minutes at 37° C. for the signal to develop. The plates were read in a microplate-reading fluorometer capable of excitation at a wavelength in the range of 350-380 nm and detection of emitted light in the range of 440-460 nm. A read time of 0.1 sec per well was used.
# [6] = tested on: D. melanogaster; test: D. melanogaster lifespan; type: in vivo
# Protocol: Females (a) and males (b) with loss-of-function genotype dSir2^4.5/dSir2^5.26. Females (c) and males (d) with strong hypomorphic genotype dSir2^17/dSir2^KG00871.
# Survival assays were conducted independently with adult D. melanogaster in two laboratories. In the first laboratory, all trials used an yw marked wild-type strain. Larvae were reared on standard cornmeal-sugar-yeast (CSY) agar diet (cornmeal 5%, sucrose 10.5%, SAF yeast 2%, and agar 0.7%). Newly eclosed adults were placed in 1 L demography cages with approximately 75 males and 75 females. Three to four replicate 1 L demography cages were used for each treatment group in each trial. Every two days, dead flies were removed and scored, and food vials were replenished. Food vials contained cornmeal-sugar-yeast diet with SAF yeast as either 2% or 3% by weight. Test compounds in 100 μl of EtOH (or blank EtOH in controls) were mixed into melted aliquots of the adult food media to make a final concentration of 0, 10 or 100 μM. Fresh stock solutions and adult media were prepared weekly. In the second laboratory, lifespan trials were conducted with the wild type strain Canton-S, dSir2^4.5 and dSir2^5.26 (S. Smolik, University of Oregon), dSir2^17 (S. Astrom, Stockholm University, Sweden), and dSir2^KG00871 (Drosophila Stock Center, Bloomington, Ind.). Larvae for all tests were reared on standard cornmeal-sugar-yeast diet. Newly eclosed adults were incubated in plastic shell vials containing 5 ml of 15% sugar-yeast diet (15% SY) or 5% sugar-yeast (5% SY) diet (15% SY: 15% yeast, 15% sucrose, 2% agar; 5% SY: 5% yeast, 5% sucrose, 2% agar as per Ref. ^20). In all trials, ˜20 males with ˜20 females were placed into each of 10 vials/treatment group. Every two days, flies were passed into new vials and dead flies were counted. […] Final compound concentrations were 0, 10, 100 or 200 μM. Fresh stock solution and adult media was prepared weekly.
compound,measurement,setting,value
Oc1cc(O)cc(/C=C/C2CCCCC2)c1 [BML-224],SIRT1 stimulating activity (in words),[1],nearly as detrimental to SIRT1 stimulating activity
"Oc1cc(O)cc(/C=C/c2ccc(Cl)cc2)c1 [BML-217, 3,5-Dihydroxy-4′-chloro-trans-stilbene]",SIRT1 stimulating activity (in words),[1],did the least to decrease activity; also recorded: did not significantly diminish the SIRT1 activating effect
same,% change in yeast replicative lifespan relative to untreated organisms (10 μM),[2]; 10 μM,90%
"NC(=O)c1cccnc1 [Nicotinamide, nicotinamide]",SIRT1 Vmax decrease,"[1]; 50 μM nicotinamide, absence of resveratrol, NAD+ or acetylated peptide varied",30% and 36%
C/C=C1\NC(=O)[C@H]2CSSCC/C=C/[C@H](CC(=O)N[C@H](C(C)C)C(=O)N2)OC(=O)[C@H](C(C)C)NC1=O [Depsipeptide],HDAC inhibition (in words),[3],micromolar concentrations
"O=c1c(O)c(-c2ccc(O)c(O)c2)oc2cc(O)cc(O)c12 [quercetin, 3,5,7,3′,4′-Pentahydroxyflavone]",effect on lifespan (in words),[2]; 10 μM,no significant effect on lifespan
same,Average lifespan,[2],23.4 generations
"O=C(/C=C/c1cccc(C(=O)NO)c1)NO [CBHA, m-carboxy-cinnamic acid bishydroxamic acid]",HDAC inhibition (in words),[3],micromolar concentration or lower
Cc1ccc(/C=C/c2cc(O)cc(O)c2)cc1 [BML-228],SIRT1 stimulating activity (in words),[1],did the least to decrease activity
same,Survival of 293 cells,[4]; 0 h,100%
same,Survival of 293 cells,[4]; 48 h,46%
same,Survival of 293 cells,[4]; 96 h,32%
"O=C(Nc1cc(O)cc(O)c1)c1ccccc1 [BML-219, N-(3,5-Dihydroxyphenyl)benzamide]",SIRT1 stimulating activity (in words),[1],abolished activity
"Oc1cc(O)cc(/C=C/c2ccc(F)cc2)c1 [BML-212, 3,5-Dihydroxy-4′-fluoro-trans-stilbene]",% change in yeast replicative lifespan relative to untreated organisms (10 μM),[2]; 10 μM,98%
depudecin,HDAC inhibition (in words),[3],micromolar concentrations
"Oc1cc(O)cc(/C=C/c2ccccc2)c1 [Pinosylvin, 3,5-Dihydroxy-trans-stilbene]",SIRT1 stimulating activity (in words),[1],did the least to decrease activity
same,SIRT1 stimulating activity (in words),[1]; listed as pinosylvin,did not significantly diminish the SIRT1 activating effect
same,% change in yeast replicative lifespan relative to untreated organisms (10 μM),[2]; 10 μM,114%
same,activated SIRT1,[5],3.28 fold
"Oc1cc(O)cc(/C=C/c2ccc(O)c(O)c2)c1 [piceatannol, 3,5,3′,4′-Tetrahydroxy-trans-stilbene]",stimulated SIRT1 activity,"[1]; initial library screen, fluorogenic p53-K382 peptide (Table 1)",eight
same,effect on lifespan (in words),[2]; 10 μM,no significant effect on lifespan
same,Average lifespan,[2],24.0 generations
trichostatin A [TSA],HDAC inhibition (in words),[3],potent inhibitor of mammalian HDAC
CCc1ccc(/C=C/c2cc(O)cc(O)c2)cc1 [BML-225],Survival of 293 cells,[4]; 0 h,100%
same,Survival of 293 cells,[4]; 48 h,5%
same,Survival of 293 cells,[4]; 96 h,8%
"O=c1c(O)c(-c2ccc(O)c(O)c2)oc2cc(O)ccc12 [fisetin, 3,7,3′,4′-Tetrahyddroxyflavone]",increase of average lifespan,[2]; 10 μM,55%
same,maximum lifespan (in words),[2]; 10 μM,significantly increased maximum lifespan
same,Average lifespan,[2],30.0 generations
same,longevity on restricted diet,[6]; restricted diet,neither resveratrol nor fisetin further increased longevity
same,lifespan extended (maximum),"[6]; wild type Canton-S and yw, males and females, normal diet",up to 23%
"5,7,4′-Trihydroxyflavanone [genistein]",SIRT1 stimulating activity (in words),[1],absence of activity
CSc1ccc(/C=C/c2cc(O)cc(O)c2)cc1 [BML-230],"v1/v2, ratio of BML-230-stimulated to resveratrol-stimulated SIRT1 rate",[1]; R at 500 μM,≤ 1.4
same,BML-230-stimulated SIRT1 activity compared with resveratrol,"[1]; dose response, 25 μM each NAD+ and p53-382 peptide, 20 min",exceeds that stimulated by resveratrol at all concentrations tested
same,dissociation constant of SIRT1/activator complex (comparison),"[1]; inferred from two state model, FIG. 9b",lower dissociation constant than SIRT1/resveratrol
same,Survival of 293 cells,[4]; 0 h,100%
same,Survival of 293 cells,[4]; 48 h,55%
same,Survival of 293 cells,[4]; 96 h,57%
same,toxicity on 293 cells (in words),[4]; 96 hours,least toxic on 293 cells
